In the assay the test system is Saccharomyces cerevisiae ABC16-Green Monster. Briefly: growth inhibition at single dose (up to 150 µM), below the 70% cut-off for dose-response; higher = more potent. Conditions: 18 h; 30 °C; YPD. The procedure, abridged: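 The entry is percent growth inhibition of drug-sensitive S. cerevisiae ABC16-Green Monster cells. After overnight growth in YPD at 30 °C, cells were diluted to OD600 0.1–0.2 and exposed to each library compound at 150 µM in 200 µl per well, in biological duplicates with untreated cultures beside them, and OD600 was read at 0 h and after 18 h at 30 °C. Any compound under 70% in both replicates was not carried to dose-response.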

Turning to `CCn1cnc2c(Nc3cc(F)cc(F)c3)nc(C#N)nc21`, the “growth inhibition at single dose” value is below 70%.
As for `COc1ccc(-c2nc(NC(=O)CS(=O)(=O)c3ccc(F)cc3)sc2C)cc1`, the “growth inhibition at single dose” value is below 70%.
As to `CCc1ccc(Nc2cc(C)nc3nc(C)nn23)cc1`, the “growth inhibition at single dose” value was below 70%.
On to `N#Cc1ccc(-c2cnc(N)c(-c3ccc(C(N)=O)cc3)n2)cc1`, for which the “growth inhibition at single dose” value is below 70%.
For `Cc1cc(-c2cc(C(=O)N3CCCN(C)c4nc5ccccc5nc43)c3c(C)noc3n2)c(C)s1` the value was below 70%; for `Cc1ccc(C)c(Cn2c(N3CCC(C(=O)NCc4cccs4)CC3)nc3ccccc32)c1`, below 70%; for `COc1ccc2c(c1)CCCC21NC(=O)N(Cc2cc(=O)n3cc(C)ccc3n2)C1=O` (stereo not drawn), below 70%.
Under `COC(=O)c1c(C)[nH]c(C(=O)Nc2ccc(C)cn2)c1C` stands below 70%; under `Nc1nc(Nc2cc(Cl)cc(Cl)c2)c2[nH]cnc2n1`, below 70%; under `Cc1cc(OCC(=O)NCc2ccccc2)c2cc(Br)ccc2n1`, below 70%.
Under `O=C(NC1CC1)c1ccc(CSCc2ccccc2Cl)o1` stands below 70%; under `CC(=O)c1c(C)[nH]c(C(=O)Nc2ccc3ccccc3n2)c1C`, below 70%.
With `Cc1ccc(-c2noc(CN3CCN(c4cc(C)nc(N)n4)CC3)n2)cc1`, the “growth inhibition at single dose” value was below 70%.
For `COc1cc(C2=NCCN2)ccc1-n1cc(-c2cccc(C3=NCCN3)c2)nn1` the value was below 70%; for `CNc1nc(-c2[nH]c(C)c(C(=O)OC)c2C)cs1`, below 70%; for `O=c1c2ccccc2cnn1-c1nc2ccccc2s1`, below 70%.
For `C=CCn1c(C)cc(C(=O)CSc2nc3ccccc3s2)c1C` the value was below 70%.
In the case of `CCOC(=O)CC(=O)CSc1nnc(-c2ccccc2Cl)n1-c1ccccc1F`, the “growth inhibition at single dose” value was below 70%.
For `CCOc1ccc(-c2nc(C(=O)Nc3ncccc3O)cs2)cc1` the value was below 70%.
Consider `Cc1cnc(N2CCN[C@@H](Cc3ccccc3)C2)nc1Oc1ccc(-n2ccnc2)cc1`, for which the “growth inhibition at single dose” value is below 70%.
Under `Cc1cc(C(=O)COC(=O)c2[nH]nc3ccccc23)c(C)n1CC1CCCO1` (stereo not drawn) stands below 70%.
For `CCc1c(C)[nH]c2cc(-c3ccc(OC)cc3)nn2c1=O` the value was below 70%; for `COc1cc(C(=O)Nc2ccc(-c3nc4ccccc4[nH]3)cc2)cc(OC)c1OC`, below 70%.
For `CSc1nc(=O)nc(-c2ccc(Cl)cc2)[nH]1` the value was below 70%.
In the case of `CCCCCCCCCCCCCCCCOP(=O)([O-])OCC[N+](C)(C)C`, the “growth inhibition at single dose” value was below 70%.
Under `Cc1ccc(-c2cnn3c(N4CCCC4)cc(C)nc23)cc1` stands below 70%; under `Cc1cc(=O)nc(N/N=C/c2c(C)nn(-c3ccccc3Cl)c2Cl)[nH]1`, below 70%; under `Cc1ccc(N2C(=O)C3C(C2=O)C2(c4ccccc4)C(=O)C3(c3ccccc3)C(c3ccccc3)=C2c2ccccc2)cc1` (stereo not drawn), below 70%.
For the molecule `Cc1cccc(N2CCN(C(=O)c3ccc4[nH]c(C)c(C)c4c3)CC2)c1C`, the “growth inhibition at single dose” value was below 70%.
Under `Cc1ccccc1NC(=O)c1cc2ccccc2c(CN2CCC3(CC2)OCCO3)c1O` stands below 70%.
Under `Cc1ccc(O)c(C(=O)c2c[nH]c(-c3nc4ccccc4[nH]3)c2)c1` stands below 70%.
For `CNc1snc(C)c1C(=O)N(C)Cc1ccccc1OC(F)(F)F` the value was below 70%; for `Nc1ccc(-c2nc3cc(Oc4ccc(Oc5ccc6[nH]c(-c7ccc(N)cc7)nc6c5)cc4)ccc3[nH]2)cc1`, below 70%; for `CCCn1nc(C(=O)Nc2ccccc2N2CCc3ccccc3C2)ccc1=O`, below 70%.
`Cc1ccc(NC(=O)c2nc[nH]c2C(=O)Nc2nc3ccccc3[nH]2)c(C)c1`: the “growth inhibition at single dose” value is below 70%.
For `O=C(NC1CCN(c2nccc(C(F)(F)F)n2)CC1)c1cccs1` the value was below 70%; for `CCc1c(C)c(=N)c2ccccc2n1C`, below 70%; for `Cc1ncc(-c2ccnc(Nc3ccc(S(C)(=O)=O)cc3)n2)n1C(C)C`, below 70%.
On to `CC(=O)NC[C@@H]1CN(c2ccc(N3CCOCC3)c(F)c2)C(=O)O1`, for which the “growth inhibition at single dose” value was below 70%.
For `O=C(Nc1ccsc1C(=O)NC1CCCCC1)c1ccc(F)cc1` the value was below 70%.
Under `COc1ccc2c(=O)cc(C(Cl)(Cl)Cl)oc2c1` stands below 70%.
Under `COC(=O)c1c(NC(=O)c2cc3ccccc3oc2=O)sc2c1CCN(Cc1ccccc1)C2` stands below 70%.
In the case of `COc1ccc2c(c1OC)C(=O)N1c3ccccc3N=C(c3ccc(C)cc3)CC21` (stereo not drawn), the “growth inhibition at single dose” value is below 70%.
For `C=CCn1c(C)cc(C(=O)CNC(=O)Nc2ccccc2)c1C` the value was below 70%; for `CCOc1ccccc1CNC(=O)C1c2ccccc2C(=O)N(CC(C)C)C1c1cccs1` (stereo not drawn), below 70%.
Regarding `CCCCOC(=O)c1ccc(Nc2cc(C)nc3ccc(OC)cc23)cc1`, the “growth inhibition at single dose” value is below 70%.
As for `COc1ccc(CCN2CCC(NCc3cccc(N(C)C)c3)CC2)cc1`, the “growth inhibition at single dose” value was below 70%.
For `COCC(C)n1c(C)cc(C(=O)CSc2ccc(NC(C)=O)cc2)c1C` (stereo not drawn) the value was below 70%; for `CCOc1ccc(-c2nc(NC(=O)CS(=O)(=O)c3ccccc3)sc2C)cc1`, below 70%.
Consider `CCOC(=O)c1cnc2ccc(CC)cc2c1O`, for which the “growth inhibition at single dose” value is below 70%.
Consider `Cc1nc(/C=C/C(=O)Nc2nc3ccccc3[nH]2)cs1`, for which the “growth inhibition at single dose” value is below 70%.
Consider `N=c1c2ccccc2nnn1-c1cccc(C(F)(F)F)c1`, for which the “growth inhibition at single dose” value is below 70%.
Take `CCN(CC)C(=O)N1CCN(C)CC1`: the “growth inhibition at single dose” value was below 70%.
For `O=C(Nc1ccccc1-c1nc2c(C(=O)O)cccc2o1)c1ccccc1` the value was below 70%; for `COc1ccc(C2Sc3ccccc3N=C3C2=C(O)c2ccccc23)cc1` (stereo not drawn), below 70%.
For `CCOc1ccc(CN(C)CC(=O)NCCc2ccc(S(N)(=O)=O)cc2)cc1` the value was below 70%.
Consider `N=C(N)Nc1ccc(-c2ccc(-c3ccc(N=C(N)N)c(Cl)c3)o2)cc1Cl`, for which the “growth inhibition at single dose” value is below 70%.
Consider `CSC1=NC(=Nc2c(C)cccc2C)C2(CCC(C(C)(C)C)CC2)N1c1ccc(Cl)cc1` (stereo not drawn), for which the “growth inhibition at single dose” value is below 70%.
Under `CC(C)c1cc(C(=O)Nc2nnc3ccccn23)c2cnn(C(C)C)c2n1` stands below 70%.
For `O=[N+]([O-])c1cn2c(n1)OC[C@@H](OCc1ccc(OC(F)(F)F)cc1)C2` the value was below 70%; for `COc1ccc(S(=O)(=O)NN(C)c2nc(C(F)(F)F)nc3ccccc23)cc1`, below 70%.
Under `COc1ccc2c(c1)CCCC21NC(=O)N(Cc2nc3ccccc3s2)C1=O` (stereo not drawn) stands below 70%; under `O=C(Nc1ccc(-c2nc3ccccc3[nH]2)cc1)c1ccc(Cl)c(Cl)c1`, below 70%; under `COCC(C)n1c(C)cc(C(=O)COC(=O)c2cccn2C)c1C` (stereo not drawn), below 70%.
On to `O=C(NC(=O)c1csnn1)Nc1cc(C(F)(F)F)cc(C(F)(F)F)c1`, for which the “growth inhibition at single dose” value was below 70%.
Under `S=c1n(CN2CCN(c3ccccc3Cl)CC2)nc(-c2cccs2)n1Cc1ccccc1` stands below 70%; under `CCc1nc2ccccc2n1CC(O)COc1cc(C)ccc1Cl` (stereo not drawn), below 70%.
For `CC(C)(C)c1ccc(C(=O)Nc2nc3ccccc3s2)cc1` the value was below 70%; for `C=c1ccccc1=C1NN=C(Nc2ccc(F)c(F)c2F)O1`, below 70%; for `CCN(CC)CCCNc1ccnc2cc3ccccc3cc12`, below 70%.
For `COc1ccc(S(=O)(=O)N(Cc2cccs2)c2ccc3c(c2)OCCO3)cc1NC(C)=O`, the “growth inhibition at single dose” value is below 70%.
For `c1ccc2c(c1)CN(CC1CC1)CC1(CCN(Cc3c[nH]c4cnccc34)CC1)O2` the value was below 70%; for `O=C(Nc1ccc(Br)cc1)Nc1cccc(Cl)c1`, below 70%; for `O=C(c1c[nH]c2ccccc12)C(c1ccccc1)N1CCN(CC(=O)N2CCCC2)CC1` (stereo not drawn), below 70%.
For `CCC(=O)Nc1nnc(Cc2ccc(OC)c(OC)c2)s1` the value was below 70%; for `CCOC(=O)c1c(C)n(-c2ccc(Cl)cc2)c2ccc(OC(=O)C=Cc3ccccc3)cc12`, below 70%; for `Cc1nn(C)c(C)c1CC(=O)Nc1ccc(-n2cnc3ccccc32)cc1`, below 70%.
For `COc1ccc2c(c1)C1(Nc3ccccc3-c3nc4ccccc4n31)C(=O)N2` (stereo not drawn) the value was below 70%; for `O=C1C=C/C(=N\Nc2ccc3ccccc3c2)c2cccnc21`, below 70%; for `C=C(C)CCC(C)N1CCC(N2CCC(C(=O)NCCc3ccccc3)CC2)CC1` (stereo not drawn), below 70%.
For the molecule `COc1cc(OC)cc(N2C(=O)N(Cc3ccc(C(C)(C)C)cc3)c3ccccc3S2(=O)=O)c1`, the “growth inhibition at single dose” value is below 70%.
For `O=c1cc(NC2CCN(CCCc3ccccc3)CC2)c2cc(Cl)ccc2o1` the value was below 70%.
For `CC(C)c1ccc2cc(C(=O)Nc3ccc4c(c3)NC(=O)CO4)[nH]c2c1` the value was below 70%.

The values above are taken from the supplement of paper PMC8837787.
